Measurements reported in publication PMC6627058, “Slow-Binding Inhibition of Tyrosinase by Ecklonia cava Phlorotannins” (Marine Drugs, 2019).
“And” between values parts separate entries of the source, which are not always exact repeats. Identical values can stand only once. Like-named read-outs stand apart in the source and are kept apart here.

Columns and labels:
tyrosinase [1] = target: T1, tyrosinase (Agaricus bisporus, UniProt C7FF04); details: cited from earlier work; for Mode of tyrosinase inhibition (literature): phlorotannins from seaweeds
T1 construct: purchased Sigma-Aldrich T3824
T1 sequence (C7FF04 1-392 limits assumed): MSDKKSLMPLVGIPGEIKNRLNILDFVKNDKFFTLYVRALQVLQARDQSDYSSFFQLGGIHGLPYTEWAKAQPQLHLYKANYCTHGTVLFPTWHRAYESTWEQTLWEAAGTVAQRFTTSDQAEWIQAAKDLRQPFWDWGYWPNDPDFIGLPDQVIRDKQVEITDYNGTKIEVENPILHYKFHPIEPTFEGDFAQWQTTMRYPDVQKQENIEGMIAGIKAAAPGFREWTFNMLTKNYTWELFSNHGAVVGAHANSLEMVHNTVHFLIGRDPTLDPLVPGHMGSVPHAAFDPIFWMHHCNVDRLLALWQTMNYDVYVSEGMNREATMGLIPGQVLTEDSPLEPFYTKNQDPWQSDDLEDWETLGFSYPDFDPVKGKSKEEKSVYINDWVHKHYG

tyrosinase [2] = target: T1, tyrosinase; experiment: Tyrosinase assay (L-tyrosine substrate, product detected at 475 nm); assay type: biochemical, mushroom; details: for inhibition at 100 µM: read-out: Inhibitory activity on tyrosinase at 100 μM (%); for Binding mode: Lineweaver–Burk and Dixon plots; for Ki: based on Dixon plots
Description: Phlorotannins of E. cava and E. stolonifera were reported to have the inhibitory activity on mushroom tyrosinase. […] This study evaluated the ability of the isolated phlorotannins 1–7 to suppress the catalytic reaction of tyrosinase over time, in the absence or presence of inhibitor. […]. A commercial tyrosinase inhibitor was used as a positive control (kojic acid; […]. To identify potent inhibitors, the inhibitory activity of all of the isolated compounds at 100 μM was tested against tyrosinase in vitro (Table 1). Of these, compounds 2–5 were confirmed to have inhibitory activity exceeding 50%. Serial dilutions were used to calculate the IC50 values. The tyrosinase inhibitory activity increased in a dose-dependent fashion (Figure 2A). […]. To gain insight into the interaction of the enzyme with phlorotannins, as tyrosinase inhibitors, the products of the catalytic reaction were determined by ultraviolet-visible photometry after the inhibitor was added to the enzyme solution. The IC50 values of compounds 3 and 5 increased linearly with [S]/Km (Figure 2B). […]. Phlorotannins from seaweeds have been used to develop the non-competitive tyrosinase inhibitors 7-phloroeckol, dieckol, and phlorofucofuroeckol A, and the competitive inhibitors phloroglucinol and eckstolonol.
To evaluate inhibitory activity on tyrosinase with isolated compounds, 130 μL of tyrosinase in […] phosphate buffer (pH 6.8) was divided in 96 well plates. 20 μL of compound concentrations ranging from 1–0.015 mM was added. 50 μL of 1.5 mM L-tyrosine in phosphate buffer was diluted into the mixture for calculating the inhibitory activity. 50 μL of 10–0.62 mM L-tyrosine in buffer was added to analyze initial velocity (v0). After starting their reaction for 20 min, an amount of the product was detected at UV–vis 475 nm. […]

tyrosinase [3] = target: T1, tyrosinase; experiment: Slow-binding inhibition analysis (progress curves); assay type: biochemical, mushroom; details: for Ki: apparent Ki from slow-binding analysis, read-out: kapp i; for Slow-binding mechanism: replot of kobs vs [I]
Description: To confirm time-dependent inhibition by the potential inhibitors (compounds 3 and 5), the substrate was added into a mixture of ligand (3.1 μM) that was preincubated with tyrosinase. Over time, their inhibitory activities increased. To calculate the slow-binding parameters (k3, k4, k5, k6, and kapp i), the progress curves were analyzed using equation (2), with increasing concentrations of compounds 3 and 5 (Figure 3C,D); a replot of kobs was obtained as [I] (Figure 3E,F). The replot of compound 3 was a straight line that fit equation (3). […] The two strongest inhibitors had different slow-binding mechanisms. Inhibitor 5, which has a higher molecular weight, induced a new conformational state of the enzyme.
The progress curves were calculated to Equation (2) by Morrison according to time course for 420 s. [P] = vst + [(v0 − vs)/kobs(1 − e^−kobst)](2) where t is time, [P] is product intensity, v0 and vs are the initial and steady-state reaction velocities, and kobs is the apparent first-order rate […]. kobs = k4 + k3[I](3) (4) Kiapp=k4/k3
This is a linear Equation (3) for slow-binding mechanism A. Kiapp is the apparent value of an inhibitor by Equation (4). Where [I] is inhibitor concentration. (5) kobs=k6+[(k5×[I])/(Kiapp+[I])
Equation (5) of hyperbola is for the calculation of rate constant in slow-binding mechanism B.

Compound: Oc1cc(O)cc(Oc2c(O)cc(O)c3c2Oc2c(O)cc(Oc4c(O)cc(O)cc4O)cc2O3)c1 [7-phloroeckol]
- Mode of tyrosinase inhibition (literature) (tyrosinase [1]): non-competitive

Compound: Oc1cc(O)cc(Oc2c(O)cc(O)c3c2Oc2c(O)cc(O)cc2O3)c1 [Compound 2, eckol]
- IC50 (tyrosinase [2]; IC50, triplicate): 13.5 ± 0.1 µM
- inhibition at 100 µM (tyrosinase [2]; compound at 100 μM, triplicate): 86 ± 4.7%
- Binding mode (reported) (tyrosinase [1]): Reported as non-competitive ^d

Compound: Oc1cc(O)cc(Oc2c(Oc3c(O)cc(O)cc3O)cc(O)c3c2Oc2c(O)cc(O)cc2O3)c1 [Compound 3, 2-phloroeckol]
- Binding mode (tyrosinase [2]): Competitive
- Ki (tyrosinase [2]): 8.2 µM
- inhibition at 100 µM (tyrosinase [2]; compound at 100 μM, triplicate): 94.7 ± 1.4%
- IC50 (tyrosinase [2]; triplicate, read-out: IC50): < 10 µM and 7 µM
- Ki (tyrosinase [3]): 6.5 µM
- Slow-binding mechanism (tyrosinase [3]): a single-step binding mechanism
- K3 (tyrosinase [3]; slow-binding mechanism A): 0.0002 mM/s
- k4 (tyrosinase [3]; slow-binding mechanism A): 0.0013 s⁻¹

Compound: Oc1cc(O)cc(Oc2c(O)cc(O)c3c2Oc2c(O)cc4oc5c(Oc6cc(O)cc(O)c6)c(O)cc(O)c5c4c2O3)c1 [Compound 4, phlorofucofuroeckol A]
- IC50 (tyrosinase [2]; IC50, triplicate): 66.4 ± 0.1 µM
- inhibition at 100 µM (tyrosinase [2]; compound at 100 μM, triplicate): 57.1 ± 3.3%
- Mode of tyrosinase inhibition (literature) (tyrosinase [1]): non-competitive

Compound: Oc1cc(O)cc(Oc2c(O)cc(O)c3c2Oc2c(O)cc(O)c(-c4c(O)cc(O)c5c4Oc4c(O)cc(Oc6c(O)cc(O)cc6O)c(Oc6cc(O)cc(O)c6)c4O5)c2O3)c1 [Compound 5, 2-O-(2,4,6-trihydroxyphenyl)-6,6′-bieckol]
- Binding mode (tyrosinase [2]): Competitive
- Ki (tyrosinase [2]): 5.8 µM
- inhibition at 100 µM (tyrosinase [2]; compound at 100 μM, triplicate): 86.9 ± 0.9%
- IC50 (tyrosinase [2]; triplicate, read-out: IC50): < 10 µM and 8.8 µM
- Ki (tyrosinase [3]): 4.4 µM
- Slow-binding mechanism (tyrosinase [3]): a two-step binding mechanism
- K5 (tyrosinase [3]; slow-binding mechanism B): 0.0047 s⁻¹
- K6 (tyrosinase [3]; slow-binding mechanism B): 0.0003 s⁻¹

Compound: Oc1cc(O)cc(Oc2c(O)cc(O)c3c2Oc2c(cc(O)c(-c4c(O)cc(O)c5c4Oc4c(O)cc(O)c(Oc6cc(O)cc(O)c6)c4O5)c2O)O3)c1 [Compound 6, 6,8′-bieckol]
- inhibition at 100 µM (tyrosinase [2]; compound at 100 μM, triplicate): 41.2 ± 4.3%

Compound: Oc1cc(O)cc(Oc2c(O)cc(O)c3c2Oc2c(cc(O)c(-c4c(O)cc5c(c4O)Oc4c(Oc6cc(O)cc(O)c6)c(O)cc(O)c4O5)c2O)O3)c1 [Compound 7, 8,8′-bieckol]
- inhibition at 100 µM (tyrosinase [2]): 43.3 ± 1.5%

Compound: Oc1cc(O)cc(Oc2c(O)cc(O)c3c2Oc2c(O)cc(Oc4c(O)cc(Oc5c(O)cc(O)c6c5Oc5c(O)cc(O)cc5O6)cc4O)cc2O3)c1 [dieckol]
- Mode of tyrosinase inhibition (literature) (tyrosinase [1]): non-competitive

Compound: Oc1cc(O)cc(O)c1 [phloroglucinol]
- Mode of tyrosinase inhibition (literature) (tyrosinase [1]): competitive

Compound: eckstolonol
- Mode of tyrosinase inhibition (literature) (tyrosinase [1]): competitive

Compound: triphlorethol A [Compound 1]
- Inhibitory activity on tyrosinase at 100 μM (%) (tyrosinase [2]; compound at 100 μM, triplicate): 26.7 ± 1.0%
